Legend:
Histone deacetylase 11 = target: T1, Histone deacetylase 11 (Homo sapiens, UniProt Q96DB2); experiment: Inhibition of human full length recombinant HDAC11 using p53 (379 to 382 residues) (RHKK(Ac)AMC) as substrate preincubated for 5 to 10 mins followed by substrate addition and measured after 2 hrs by fluorescence method
T1 sequence (Q96DB2 whole entry): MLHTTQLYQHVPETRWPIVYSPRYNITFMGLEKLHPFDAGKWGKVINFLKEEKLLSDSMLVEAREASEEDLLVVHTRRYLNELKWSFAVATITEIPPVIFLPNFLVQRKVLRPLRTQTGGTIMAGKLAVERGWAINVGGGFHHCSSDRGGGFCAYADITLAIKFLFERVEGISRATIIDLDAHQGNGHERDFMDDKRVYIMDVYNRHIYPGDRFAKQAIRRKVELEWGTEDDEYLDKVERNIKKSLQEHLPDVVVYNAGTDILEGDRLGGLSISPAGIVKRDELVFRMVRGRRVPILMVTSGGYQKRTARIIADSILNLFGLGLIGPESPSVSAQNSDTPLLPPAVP

[1] = target: Histone deacetylase 3/Nuclear receptor corepressor 2 (HDAC3/NCoR2) (Homo sapiens, UniProt O15379); experiment: Inhibition of human full length recombinant HDAC3/ NcoR2 using p53 (379 to 382 residues) (RHKK(Ac)AMC) as substrate preincubated for 5 to 10 mins followed by substrate addition and measured after 2 hrs by fluorescence method; type: protein-complex assay
[2] = target: T2, Polyamine deacetylase HDAC10 (Homo sapiens, UniProt Q969S8); experiment: Inhibition of human full length recombinant HDAC10 using p53 (379 to 382 residues) (RHKK(Ac)AMC) as substrate preincubated for 5 to 10 mins followed by substrate addition and measured after 2 hrs by fluorescence method
T2 sequence (Q969S8 whole entry): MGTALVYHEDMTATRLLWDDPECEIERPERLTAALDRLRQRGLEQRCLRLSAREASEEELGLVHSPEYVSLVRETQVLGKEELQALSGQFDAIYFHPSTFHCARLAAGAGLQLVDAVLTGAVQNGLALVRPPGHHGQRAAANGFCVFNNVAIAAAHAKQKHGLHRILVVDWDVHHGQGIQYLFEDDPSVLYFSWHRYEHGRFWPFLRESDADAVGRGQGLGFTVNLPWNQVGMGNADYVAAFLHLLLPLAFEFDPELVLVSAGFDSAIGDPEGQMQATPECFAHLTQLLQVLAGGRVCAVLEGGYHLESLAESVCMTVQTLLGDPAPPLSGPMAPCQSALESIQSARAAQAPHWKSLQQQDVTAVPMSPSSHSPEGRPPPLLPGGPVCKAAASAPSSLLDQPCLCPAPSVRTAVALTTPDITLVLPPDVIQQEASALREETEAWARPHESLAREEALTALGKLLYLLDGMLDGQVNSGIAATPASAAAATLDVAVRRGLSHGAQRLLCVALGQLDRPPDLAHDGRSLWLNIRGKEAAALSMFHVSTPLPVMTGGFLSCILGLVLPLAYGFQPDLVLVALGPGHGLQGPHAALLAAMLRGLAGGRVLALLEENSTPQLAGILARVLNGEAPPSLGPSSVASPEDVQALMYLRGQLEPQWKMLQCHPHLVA

Histone deacetylase 5 [3] = target: T3, Histone deacetylase 5 (Homo sapiens, UniProt Q9UQL6); experiment: Inhibition of human full length recombinant HDAC5 using p53 (379 to 382 residues) Ac-LGK(TFA)-AMC as substrate preincubated for 5 to 10 mins followed by substrate addition and measured after 2 hrs by fluorescence method
T3 sequence (Q9UQL6 whole entry, the tested form may be a part): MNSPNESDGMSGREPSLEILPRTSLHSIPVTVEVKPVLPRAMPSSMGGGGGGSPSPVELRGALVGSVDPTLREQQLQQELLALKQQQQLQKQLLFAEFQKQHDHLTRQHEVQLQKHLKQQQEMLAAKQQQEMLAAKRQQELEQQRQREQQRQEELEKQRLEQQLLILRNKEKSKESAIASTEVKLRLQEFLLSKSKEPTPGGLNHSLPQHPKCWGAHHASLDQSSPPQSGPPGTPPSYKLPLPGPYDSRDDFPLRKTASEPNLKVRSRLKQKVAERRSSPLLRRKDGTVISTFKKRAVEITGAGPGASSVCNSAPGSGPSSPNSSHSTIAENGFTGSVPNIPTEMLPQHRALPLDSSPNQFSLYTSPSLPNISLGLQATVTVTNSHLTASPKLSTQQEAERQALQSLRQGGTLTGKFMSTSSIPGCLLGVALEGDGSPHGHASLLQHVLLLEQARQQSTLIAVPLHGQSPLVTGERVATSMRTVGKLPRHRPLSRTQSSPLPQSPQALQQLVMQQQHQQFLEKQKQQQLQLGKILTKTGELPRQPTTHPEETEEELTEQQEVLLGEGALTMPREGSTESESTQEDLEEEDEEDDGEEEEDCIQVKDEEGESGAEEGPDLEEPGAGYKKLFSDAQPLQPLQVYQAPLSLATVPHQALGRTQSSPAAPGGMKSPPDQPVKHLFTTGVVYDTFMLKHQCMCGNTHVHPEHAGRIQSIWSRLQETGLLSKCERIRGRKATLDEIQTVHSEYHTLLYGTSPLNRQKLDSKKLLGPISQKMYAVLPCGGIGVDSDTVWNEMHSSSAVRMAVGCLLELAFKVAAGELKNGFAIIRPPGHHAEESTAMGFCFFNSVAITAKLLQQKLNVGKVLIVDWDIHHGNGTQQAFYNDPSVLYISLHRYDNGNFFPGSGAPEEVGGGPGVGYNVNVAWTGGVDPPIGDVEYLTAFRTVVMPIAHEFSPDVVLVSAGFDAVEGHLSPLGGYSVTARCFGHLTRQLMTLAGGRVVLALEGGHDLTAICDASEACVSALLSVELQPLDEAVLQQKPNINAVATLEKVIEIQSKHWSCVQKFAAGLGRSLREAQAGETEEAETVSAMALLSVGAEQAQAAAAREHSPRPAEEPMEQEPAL

Histone deacetylase 9 [4] = target: T4, Histone deacetylase 9 (Homo sapiens, UniProt Q9UKV0); experiment: Inhibition of human full length recombinant HDAC9 using p53 (379 to 382 residues) Ac-LGK(TFA)-AMC as substrate preincubated for 5 to 10 mins followed by substrate addition and measured after 2 hrs by fluorescence method
T4 sequence (Q9UKV0 whole entry, the tested form may be a part): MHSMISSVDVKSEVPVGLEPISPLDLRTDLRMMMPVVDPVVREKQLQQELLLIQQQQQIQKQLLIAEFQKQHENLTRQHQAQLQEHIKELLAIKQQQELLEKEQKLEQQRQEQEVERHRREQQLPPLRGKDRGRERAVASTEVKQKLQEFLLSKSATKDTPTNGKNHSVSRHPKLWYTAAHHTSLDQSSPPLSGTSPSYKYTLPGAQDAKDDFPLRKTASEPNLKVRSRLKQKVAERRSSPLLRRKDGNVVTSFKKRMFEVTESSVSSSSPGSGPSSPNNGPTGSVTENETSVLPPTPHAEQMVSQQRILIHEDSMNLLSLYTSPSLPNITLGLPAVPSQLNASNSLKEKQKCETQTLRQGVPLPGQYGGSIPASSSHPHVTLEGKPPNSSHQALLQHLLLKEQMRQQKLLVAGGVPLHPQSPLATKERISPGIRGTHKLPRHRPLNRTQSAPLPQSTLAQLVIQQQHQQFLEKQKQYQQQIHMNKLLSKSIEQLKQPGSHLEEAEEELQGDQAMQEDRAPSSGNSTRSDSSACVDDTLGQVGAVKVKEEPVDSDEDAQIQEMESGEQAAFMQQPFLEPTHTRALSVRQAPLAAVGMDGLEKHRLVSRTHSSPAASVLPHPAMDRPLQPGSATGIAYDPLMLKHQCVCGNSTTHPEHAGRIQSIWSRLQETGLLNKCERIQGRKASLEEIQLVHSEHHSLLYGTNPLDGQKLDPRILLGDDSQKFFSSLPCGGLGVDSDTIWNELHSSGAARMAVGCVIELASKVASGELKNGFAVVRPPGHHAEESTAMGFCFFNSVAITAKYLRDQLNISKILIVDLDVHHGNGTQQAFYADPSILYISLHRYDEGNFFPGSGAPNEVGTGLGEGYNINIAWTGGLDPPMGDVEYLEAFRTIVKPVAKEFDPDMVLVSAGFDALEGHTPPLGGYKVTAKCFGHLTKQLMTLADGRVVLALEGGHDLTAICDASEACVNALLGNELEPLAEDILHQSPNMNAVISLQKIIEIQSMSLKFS

Histone deacetylase 8 [5] = target: T5, Histone deacetylase 8 (Homo sapiens, UniProt Q9BY41); experiment: Inhibition of human full length recombinant HDAC8 using p53 (379 to 382 residues) (RHK(Ac)K(Ac)AMC as substrate preincubated for 5 to 10 mins followed by substrate addition and measured after 2 hrs by fluorescence method
T5 sequence (Q9BY41 whole entry): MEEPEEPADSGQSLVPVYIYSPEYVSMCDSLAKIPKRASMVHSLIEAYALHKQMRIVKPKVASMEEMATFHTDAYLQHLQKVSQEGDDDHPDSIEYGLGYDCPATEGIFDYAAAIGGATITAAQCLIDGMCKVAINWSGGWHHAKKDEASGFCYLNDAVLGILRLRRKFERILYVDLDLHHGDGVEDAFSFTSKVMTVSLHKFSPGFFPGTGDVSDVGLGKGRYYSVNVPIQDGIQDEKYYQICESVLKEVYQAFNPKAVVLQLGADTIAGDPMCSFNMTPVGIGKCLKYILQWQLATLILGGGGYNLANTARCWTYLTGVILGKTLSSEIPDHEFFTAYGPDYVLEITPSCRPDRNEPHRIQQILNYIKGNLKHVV

Histone deacetylase 7 [6] = target: T6, Histone deacetylase 7 (Homo sapiens, UniProt Q8WUI4); experiment: Inhibition of human full length recombinant HDAC7 using p53 (379 to 382 residues) Ac-LGK(TFA)-AMC as substrate preincubated for 5 to 10 mins followed by substrate addition and measured after 2 hrs by fluorescence method
T6 sequence (Q8WUI4 whole entry): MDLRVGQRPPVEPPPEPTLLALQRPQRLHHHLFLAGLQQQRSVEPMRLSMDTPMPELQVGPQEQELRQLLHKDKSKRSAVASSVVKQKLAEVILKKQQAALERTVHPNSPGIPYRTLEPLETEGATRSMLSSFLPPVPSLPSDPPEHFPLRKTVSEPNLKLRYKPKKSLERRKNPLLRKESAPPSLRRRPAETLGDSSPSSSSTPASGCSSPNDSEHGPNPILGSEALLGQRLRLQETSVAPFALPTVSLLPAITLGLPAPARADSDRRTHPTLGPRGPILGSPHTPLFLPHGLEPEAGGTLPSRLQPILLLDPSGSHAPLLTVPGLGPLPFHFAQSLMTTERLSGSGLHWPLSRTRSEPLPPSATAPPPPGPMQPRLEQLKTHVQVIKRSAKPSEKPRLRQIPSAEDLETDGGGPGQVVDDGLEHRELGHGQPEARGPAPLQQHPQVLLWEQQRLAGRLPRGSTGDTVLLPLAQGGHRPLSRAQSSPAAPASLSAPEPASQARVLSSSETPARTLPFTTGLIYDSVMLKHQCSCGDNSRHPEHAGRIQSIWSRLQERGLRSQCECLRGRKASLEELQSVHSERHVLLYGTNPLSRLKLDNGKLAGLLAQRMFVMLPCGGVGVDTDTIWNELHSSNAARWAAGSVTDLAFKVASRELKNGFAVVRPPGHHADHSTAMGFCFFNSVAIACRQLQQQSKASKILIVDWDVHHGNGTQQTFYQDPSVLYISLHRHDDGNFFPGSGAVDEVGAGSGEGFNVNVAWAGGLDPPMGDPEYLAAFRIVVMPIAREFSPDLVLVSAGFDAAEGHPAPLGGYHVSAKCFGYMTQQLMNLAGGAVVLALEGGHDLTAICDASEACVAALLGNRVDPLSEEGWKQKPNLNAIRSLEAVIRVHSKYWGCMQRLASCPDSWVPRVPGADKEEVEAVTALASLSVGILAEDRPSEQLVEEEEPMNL

Histone deacetylase 2 [7] = target: T7, Histone deacetylase 2 (Homo sapiens, UniProt Q92769)
T7 sequence (Q92769 whole entry): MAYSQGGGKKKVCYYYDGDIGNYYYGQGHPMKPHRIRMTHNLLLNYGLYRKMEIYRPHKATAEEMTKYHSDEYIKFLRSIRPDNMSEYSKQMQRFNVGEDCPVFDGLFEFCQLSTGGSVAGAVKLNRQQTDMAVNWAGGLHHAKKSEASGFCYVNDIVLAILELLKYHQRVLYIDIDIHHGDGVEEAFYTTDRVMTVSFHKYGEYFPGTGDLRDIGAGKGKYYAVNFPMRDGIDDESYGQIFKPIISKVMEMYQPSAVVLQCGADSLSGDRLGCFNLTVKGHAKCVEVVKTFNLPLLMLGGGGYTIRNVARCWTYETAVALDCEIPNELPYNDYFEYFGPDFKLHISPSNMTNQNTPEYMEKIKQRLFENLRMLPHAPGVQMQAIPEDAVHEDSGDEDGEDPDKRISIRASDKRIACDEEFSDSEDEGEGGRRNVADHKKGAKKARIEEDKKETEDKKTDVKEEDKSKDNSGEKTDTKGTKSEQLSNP

Histone deacetylase 4 = Histone deacetylase 4 (Homo sapiens, UniProt P56524); experiment: Inhibition of human HDAC4 expressed in baculovirus infected sf9 cells using carboxyfluorescein (FAM)-labeled acetylated peptide substrate by microfluidic capillary electrophoresis
Chain of Histone deacetylase 4 (P56524 whole entry): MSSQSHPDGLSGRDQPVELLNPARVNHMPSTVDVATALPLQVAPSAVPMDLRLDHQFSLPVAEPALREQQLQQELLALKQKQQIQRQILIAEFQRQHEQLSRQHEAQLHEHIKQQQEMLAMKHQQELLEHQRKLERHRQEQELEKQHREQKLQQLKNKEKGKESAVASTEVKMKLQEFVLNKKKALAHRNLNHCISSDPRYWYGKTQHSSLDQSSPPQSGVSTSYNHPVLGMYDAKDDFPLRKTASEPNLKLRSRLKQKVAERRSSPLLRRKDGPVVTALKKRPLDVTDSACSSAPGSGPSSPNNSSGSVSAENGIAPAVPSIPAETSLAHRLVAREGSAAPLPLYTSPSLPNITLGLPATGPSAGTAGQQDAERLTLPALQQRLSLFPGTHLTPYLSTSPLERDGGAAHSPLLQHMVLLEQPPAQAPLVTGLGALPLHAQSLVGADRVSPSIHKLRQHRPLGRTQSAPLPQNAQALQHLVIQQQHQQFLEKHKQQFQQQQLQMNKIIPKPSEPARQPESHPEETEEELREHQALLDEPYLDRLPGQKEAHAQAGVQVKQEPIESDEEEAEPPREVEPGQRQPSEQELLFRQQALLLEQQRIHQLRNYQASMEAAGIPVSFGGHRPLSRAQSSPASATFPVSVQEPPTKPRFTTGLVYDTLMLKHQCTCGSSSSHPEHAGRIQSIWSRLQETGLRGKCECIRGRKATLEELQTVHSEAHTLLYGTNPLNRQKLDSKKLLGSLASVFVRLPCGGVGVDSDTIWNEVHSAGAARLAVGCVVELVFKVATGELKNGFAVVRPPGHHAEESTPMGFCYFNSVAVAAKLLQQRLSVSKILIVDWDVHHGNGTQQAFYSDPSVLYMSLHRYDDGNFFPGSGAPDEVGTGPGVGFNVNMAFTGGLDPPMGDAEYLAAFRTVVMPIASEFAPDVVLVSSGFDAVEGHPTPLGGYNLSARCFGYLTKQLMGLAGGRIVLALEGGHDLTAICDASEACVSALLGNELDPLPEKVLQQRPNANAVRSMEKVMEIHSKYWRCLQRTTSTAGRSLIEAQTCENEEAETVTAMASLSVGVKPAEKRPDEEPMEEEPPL

Histone deacetylase 7 [8] = target: T6, Histone deacetylase 7; experiment: Inhibition of human N-terminal GST-tagged HDAC7 (518 to end residues) expressed in baculovirus infected sf9 cells using carboxyfluorescein (FAM)-labeled acetylated peptide substrate by microfluidic capillary electrophoresis
[9] = target: T8, Protein deacetylase HDAC6 (Homo sapiens, UniProt Q9UBN7); experiment: Inhibition of HDAC6 (unknown origin) using carboxyfluorescein (FAM)-labeled acetylated peptide substrate by microfluidic capillary electrophoresis
T8 sequence (Q9UBN7 whole entry): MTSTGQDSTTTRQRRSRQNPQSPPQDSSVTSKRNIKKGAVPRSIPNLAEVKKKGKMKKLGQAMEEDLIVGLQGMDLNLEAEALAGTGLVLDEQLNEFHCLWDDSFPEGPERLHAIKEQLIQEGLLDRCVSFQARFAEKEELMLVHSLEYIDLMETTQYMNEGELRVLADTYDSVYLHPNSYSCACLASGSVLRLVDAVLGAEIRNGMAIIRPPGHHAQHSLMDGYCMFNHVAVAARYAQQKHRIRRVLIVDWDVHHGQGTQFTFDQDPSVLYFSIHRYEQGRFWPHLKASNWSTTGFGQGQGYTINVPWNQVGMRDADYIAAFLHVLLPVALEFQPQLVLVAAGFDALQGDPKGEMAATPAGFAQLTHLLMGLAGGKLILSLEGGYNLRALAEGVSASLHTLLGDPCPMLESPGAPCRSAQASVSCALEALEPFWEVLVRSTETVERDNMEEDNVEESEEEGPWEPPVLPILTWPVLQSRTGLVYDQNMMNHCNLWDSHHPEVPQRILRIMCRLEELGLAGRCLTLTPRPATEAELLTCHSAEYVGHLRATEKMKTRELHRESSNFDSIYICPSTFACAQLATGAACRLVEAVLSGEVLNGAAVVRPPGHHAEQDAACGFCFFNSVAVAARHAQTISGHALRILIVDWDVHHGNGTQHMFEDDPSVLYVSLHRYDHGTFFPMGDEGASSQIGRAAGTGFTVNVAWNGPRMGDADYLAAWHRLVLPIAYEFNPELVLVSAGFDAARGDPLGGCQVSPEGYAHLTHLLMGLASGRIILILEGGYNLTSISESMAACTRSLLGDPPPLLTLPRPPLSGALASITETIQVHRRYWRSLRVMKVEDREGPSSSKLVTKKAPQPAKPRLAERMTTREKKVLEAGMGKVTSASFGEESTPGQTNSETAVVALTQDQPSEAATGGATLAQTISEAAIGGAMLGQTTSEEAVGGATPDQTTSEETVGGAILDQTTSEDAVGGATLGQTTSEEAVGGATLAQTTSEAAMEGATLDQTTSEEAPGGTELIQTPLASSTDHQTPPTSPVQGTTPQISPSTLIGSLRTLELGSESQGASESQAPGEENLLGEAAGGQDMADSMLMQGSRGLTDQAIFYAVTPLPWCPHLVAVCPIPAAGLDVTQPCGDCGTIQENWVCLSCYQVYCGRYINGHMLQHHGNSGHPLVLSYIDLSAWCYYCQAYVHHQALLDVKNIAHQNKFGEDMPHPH

Histone deacetylase 1 = Histone deacetylase 1 (Homo sapiens, UniProt Q13547); experiment: Inhibition of HDAC1 (unknown origin) using carboxyfluorescein (FAM)-labeled acetylated peptide substrate preincubated for 3 hrs by microfluidic capillary electrophoresis
Chain of Histone deacetylase 1 (Q13547 whole entry): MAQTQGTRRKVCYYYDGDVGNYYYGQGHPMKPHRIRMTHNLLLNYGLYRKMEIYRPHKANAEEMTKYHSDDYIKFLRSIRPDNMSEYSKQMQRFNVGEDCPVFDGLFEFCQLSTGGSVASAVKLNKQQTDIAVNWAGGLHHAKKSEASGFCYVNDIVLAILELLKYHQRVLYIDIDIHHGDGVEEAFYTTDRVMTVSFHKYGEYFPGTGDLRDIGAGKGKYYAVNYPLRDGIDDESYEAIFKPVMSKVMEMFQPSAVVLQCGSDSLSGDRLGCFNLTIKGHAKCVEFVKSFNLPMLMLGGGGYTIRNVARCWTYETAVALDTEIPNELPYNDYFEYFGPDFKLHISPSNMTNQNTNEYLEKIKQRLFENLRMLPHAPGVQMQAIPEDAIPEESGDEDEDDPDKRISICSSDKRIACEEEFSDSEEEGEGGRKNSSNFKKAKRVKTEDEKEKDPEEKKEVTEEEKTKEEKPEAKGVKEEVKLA

Histone deacetylase 5 [10] = target: T3, Histone deacetylase 5; experiment: Inhibition of human HDAC5 using carboxyfluorescein (FAM)-labeled acetylated peptide substrate by microfluidic capillary electrophoresis
Histone deacetylase 9 [11] = target: T4, Histone deacetylase 9; experiment: Inhibition of C-terminal His-tagged human HDAC9 (604 to 1066 residues) expressed in baculovirus infected sf9 cells using carboxyfluorescein (FAM)-labeled acetylated peptide substrate by microfluidic capillary electrophoresis
Histone deacetylase 8 [12] = target: T5, Histone deacetylase 8; experiment: Inhibition of recombinant human C-terminal His-tagged HDAC8 expressed in baculovirus infected sf9 cells using carboxyfluorescein (FAM)-labeled acetylated peptide substrate by microfluidic capillary electrophoresis
Histone deacetylase 2 [13] = target: T7, Histone deacetylase 2; experiment: Inhibition of human HDAC2 expressed in Sf9 cells using carboxyfluorescein (FAM)-labeled acetylated peptide substrate preincubated for 3 hrs by microfluidic capillary electrophoresis
Homo sapiens [14] = species on record: Homo sapiens; experiment: Selectivity ratio of IC50 for human HDAC2 expressed in Sf9 cells to IC50 for HDAC6 (unknown origin)
Homo sapiens [15] = species on record: Homo sapiens; experiment: Selectivity ratio of IC50 for human HDAC4 expressed in Sf9 cells to IC50 for HDAC6 (unknown origin)
Homo sapiens [16] = species on record: Homo sapiens; experiment: Selectivity ratio of IC50 for human C-terminal His-tagged HDAC3 (1 to 428 residues)/human N-terminal GST-tagged NcoR2 (395 to 489 residues) expressed in sf9 cells to IC50 for HDAC6 (unknown origin)
Homo sapiens [17] = species on record: Homo sapiens; experiment: Selectivity ratio of IC50 for human HDAC5 to IC50 for HDAC6 (unknown origin)
Homo sapiens [18] = species on record: Homo sapiens; experiment: Selectivity ratio of IC50 for human N-terminal GST-tagged HDAC7 (518 to end residues) expressed in baculovirus infected sf9 cells to IC50 for HDAC6 (unknown origin)
Homo sapiens [19] = species on record: Homo sapiens; experiment: Selectivity ratio of IC50 for recombinant human C-terminal His-tagged HDAC8 expressed in baculovirus infected sf9 cells to IC50 for HDAC6 (unknown origin)
Homo sapiens [20] = species on record: Homo sapiens; experiment: Selectivity ratio of IC50 for HDAC1 (unknown origin) to IC50 for HDAC6 (unknown origin)
Homo sapiens [21] = species on record: Homo sapiens; experiment: Selectivity ratio of IC50 for C-terminal His-tagged human HDAC9 (604 to 1066 residues) expressed in baculovirus infected sf9 cells to IC50 for HDAC6 (unknown origin)
[22] = target: T8, Protein deacetylase HDAC6; experiment: Inhibition of HDAC6 (unknown origin) using acetyl-lysine tripeptide substrate as substrate preincubated for 24 hrs followed substrate addition and shaken for 5 secs and measured over 30 mins

SMILES: O=C(NO)c1ccc(CN2CCCc3cc(Cl)ccc32)cc1
- IC50 (Histone deacetylase 11): 6 µM
- IC50 [1]: 30 µM
- IC50 [2]: 26 µM
- IC50 (Histone deacetylase 5 [3]): 4 µM
- IC50 (Histone deacetylase 9 [4]): 4 µM
- IC50 (Histone deacetylase 8 [5]): 4 µM
- IC50 (Histone deacetylase 7 [6]): 5 µM
- IC50 (Histone deacetylase 2 [7]): 33 µM

SMILES: CC(=O)Nc1ccc(C(=O)Nc2ccc(F)cc2N)cc1
- IC50 (Histone deacetylase 4): > 30 µM
- IC50 (Histone deacetylase 7 [8]): > 30 µM
- IC50 [9]: > 30 µM
- IC50 (Histone deacetylase 1): 1 µM
- IC50 (Histone deacetylase 5 [10]): > 30 µM
- IC50 (Histone deacetylase 9 [11]): > 30 µM
- IC50 (Histone deacetylase 8 [12]): > 30 µM
- IC50 (Histone deacetylase 2 [13]): 1 µM

SMILES: O=C(NO)c1cnc(C2(c3ccccc3)CCC(F)(F)CC2)nc1
- Ratio IC50 (Homo sapiens [14]): > 250
- Ratio IC50 (Homo sapiens [15]): > 250
- Ratio IC50 (Homo sapiens [16]): > 250
- Ratio IC50 (Homo sapiens [17]): > 250
- Ratio IC50 (Homo sapiens [18]): > 250
- Ratio IC50 (Homo sapiens [19]): > 250
- Ratio IC50 (Homo sapiens [20]): > 250
- Ratio IC50 (Homo sapiens [21]): > 250
- IC50 [22]: 0.003 µM

Source: ChEMBL document CHEMBL4765362, “Thirty Years of HDAC Inhibitors: 2020 Insight and Hindsight” (J Med Chem, 2020)
